This note sets out measurements from ChEMBL document CHEMBL1177708, “Design, synthesis, and biological evaluation of a novel class of gamma-secretase modulators with PPARgamma activity” (J Med Chem, 2010).

The source made the active and inactive calls. No cut-off for these calls is given here.

For data set [1], the target named is T1, Prostaglandin G/H synthase 1 (Ovis aries, UniProt P05979).
T1 sequence (P05979 whole entry): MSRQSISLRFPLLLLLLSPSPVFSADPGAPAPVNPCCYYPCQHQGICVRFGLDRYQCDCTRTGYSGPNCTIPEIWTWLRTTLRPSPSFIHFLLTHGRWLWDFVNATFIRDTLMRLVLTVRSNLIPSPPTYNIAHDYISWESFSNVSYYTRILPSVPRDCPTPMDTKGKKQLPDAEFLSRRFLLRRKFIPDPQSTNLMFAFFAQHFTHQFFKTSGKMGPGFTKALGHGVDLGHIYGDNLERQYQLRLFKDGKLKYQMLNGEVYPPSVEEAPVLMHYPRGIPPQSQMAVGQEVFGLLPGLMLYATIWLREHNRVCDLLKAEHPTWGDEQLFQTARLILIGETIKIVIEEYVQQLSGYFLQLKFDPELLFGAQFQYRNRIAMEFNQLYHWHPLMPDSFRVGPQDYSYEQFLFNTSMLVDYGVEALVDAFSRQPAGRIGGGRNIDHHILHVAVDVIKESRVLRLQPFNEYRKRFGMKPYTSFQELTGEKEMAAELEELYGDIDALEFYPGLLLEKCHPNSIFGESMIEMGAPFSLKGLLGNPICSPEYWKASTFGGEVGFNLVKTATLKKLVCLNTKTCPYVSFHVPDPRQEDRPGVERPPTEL
Description: Inhibition of ovine COX1 after 5 mins

The nature of data set [2]: cells. As to conditions: CHO, 24 h.
Description: Modulation of gamma-secretase-mediated cleavage of human APP expressed in CHO cells with human presenilin-1 assessed as inhibition of amyloid beta42 production after 24 hrs by ELISA
The target in data set [3] is T2, Prostaglandin G/H synthase 1 (Ovis aries) (UniProt P05979).
T2 sequence (whole entry): T1 sequence (P05979 whole entry)
Put plainly: Inhibition of ovine COX1 assessed as residual activity at 10 uM after 5 mins.

Data set [4] deals with T3, Peroxisome proliferator-activated receptor delta (Homo sapiens) (UniProt Q03181).
T3 sequence (whole entry): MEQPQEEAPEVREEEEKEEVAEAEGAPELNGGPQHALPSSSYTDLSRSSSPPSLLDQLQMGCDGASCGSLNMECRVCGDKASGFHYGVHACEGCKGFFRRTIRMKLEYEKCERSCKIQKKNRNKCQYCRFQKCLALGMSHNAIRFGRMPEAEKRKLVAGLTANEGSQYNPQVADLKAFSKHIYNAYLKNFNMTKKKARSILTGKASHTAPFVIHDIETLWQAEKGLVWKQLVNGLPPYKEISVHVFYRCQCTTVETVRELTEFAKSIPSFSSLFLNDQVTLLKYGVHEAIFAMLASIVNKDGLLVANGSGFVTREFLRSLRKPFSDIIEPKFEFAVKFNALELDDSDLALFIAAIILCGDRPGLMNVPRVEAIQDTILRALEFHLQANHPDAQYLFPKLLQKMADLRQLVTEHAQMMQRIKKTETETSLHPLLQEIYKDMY
Briefly: Agonist activity at human PPARdelta-LBD expressed in COS7 cells co-transfected with Gal4 at 10 uM by luciferase based transactivation assay. The format is functional, cell-based. As to conditions: COS-7.

In data set [5] the target is T4, Peroxisome proliferator-activated receptor gamma (Homo sapiens, UniProt P37231).
T4 sequence (P37231 whole entry): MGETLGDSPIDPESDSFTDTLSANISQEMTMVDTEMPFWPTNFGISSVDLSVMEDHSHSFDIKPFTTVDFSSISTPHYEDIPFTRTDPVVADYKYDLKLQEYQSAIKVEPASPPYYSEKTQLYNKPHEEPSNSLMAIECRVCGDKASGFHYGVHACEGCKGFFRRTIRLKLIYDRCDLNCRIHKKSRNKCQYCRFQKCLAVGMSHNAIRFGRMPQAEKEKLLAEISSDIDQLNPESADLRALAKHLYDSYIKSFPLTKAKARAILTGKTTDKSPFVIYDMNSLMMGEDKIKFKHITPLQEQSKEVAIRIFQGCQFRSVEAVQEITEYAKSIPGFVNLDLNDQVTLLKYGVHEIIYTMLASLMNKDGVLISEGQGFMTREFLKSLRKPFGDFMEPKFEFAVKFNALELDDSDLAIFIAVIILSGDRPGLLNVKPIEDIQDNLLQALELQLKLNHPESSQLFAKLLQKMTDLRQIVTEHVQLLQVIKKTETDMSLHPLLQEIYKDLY
Put plainly: Agonist activity at human PPARgamma-LBD expressed in COS7 cells co-transfected with Gal4 by luciferase based transactivation assay. The format is functional, cell-based, COS-7.

Data set [6] has as its target T5, Peroxisome proliferator-activated receptor alpha (Homo sapiens) (UniProt Q07869).
T5 sequence (whole entry): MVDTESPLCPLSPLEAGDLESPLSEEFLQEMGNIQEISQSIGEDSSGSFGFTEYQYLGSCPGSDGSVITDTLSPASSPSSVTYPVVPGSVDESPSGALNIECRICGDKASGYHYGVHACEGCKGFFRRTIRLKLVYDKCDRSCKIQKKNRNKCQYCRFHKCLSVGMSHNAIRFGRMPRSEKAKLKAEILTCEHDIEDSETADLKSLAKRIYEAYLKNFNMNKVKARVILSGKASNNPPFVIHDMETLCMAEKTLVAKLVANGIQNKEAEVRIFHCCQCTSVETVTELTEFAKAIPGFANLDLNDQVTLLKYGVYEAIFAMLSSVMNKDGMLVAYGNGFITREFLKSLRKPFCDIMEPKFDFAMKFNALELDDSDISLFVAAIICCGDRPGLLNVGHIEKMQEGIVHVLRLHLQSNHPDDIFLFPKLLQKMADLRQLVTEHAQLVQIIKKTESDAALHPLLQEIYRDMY
Briefly: Agonist activity at human PPARalpha-LBD expressed in COS7 cells co-transfected with Gal4 at 10 uM by luciferase based transactivation assay. In kind it is functional, cell-based. The settings on record: COS-7.

Data set [7] has as its system CHO. Put plainly: Modulation of gamma-secretase-mediated notch signaling expressed in CHO cells transfected with Gal4-DNA-binding/VP16 transactivation domain assessed as reduction of reporter activity at 5 to 40 uM after 24 hrs. In kind it is cell-based.
In data set [8] the target is T6, Prostaglandin G/H synthase 2 (Homo sapiens) (UniProt P35354).
T6 sequence (whole entry): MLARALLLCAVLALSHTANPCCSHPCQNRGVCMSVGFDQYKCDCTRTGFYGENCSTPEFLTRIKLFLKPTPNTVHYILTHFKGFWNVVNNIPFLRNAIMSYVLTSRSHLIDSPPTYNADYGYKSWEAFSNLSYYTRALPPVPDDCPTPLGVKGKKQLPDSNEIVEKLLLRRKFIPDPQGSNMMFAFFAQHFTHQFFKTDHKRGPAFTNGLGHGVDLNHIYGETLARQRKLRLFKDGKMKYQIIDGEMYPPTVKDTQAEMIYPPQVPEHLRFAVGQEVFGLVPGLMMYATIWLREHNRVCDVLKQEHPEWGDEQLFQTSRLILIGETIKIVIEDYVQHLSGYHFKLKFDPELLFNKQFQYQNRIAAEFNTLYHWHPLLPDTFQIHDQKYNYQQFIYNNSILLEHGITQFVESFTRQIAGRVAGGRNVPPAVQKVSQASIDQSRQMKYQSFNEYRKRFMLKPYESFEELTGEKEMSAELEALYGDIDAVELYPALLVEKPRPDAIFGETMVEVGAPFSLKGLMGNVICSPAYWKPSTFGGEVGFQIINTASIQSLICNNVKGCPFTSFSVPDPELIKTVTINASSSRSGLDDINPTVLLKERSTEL
Briefly: Inhibition of human recombinant COX2 assessed as residual activity at 10 uM after 5 mins.

The target in data set [9] is T7, Peroxisome proliferator-activated receptor gamma (Homo sapiens) (UniProt P37231).
T7 sequence (whole entry): T4 sequence (P37231 whole entry)
Briefly: Agonist activity at human PPARgamma-LBD expressed in COS7 cells co-transfected with Gal4 by luciferase based transactivation assay relative to pioglitazone. As to conditions: COS-7. The format is functional, cell-based.

Data set [10] can be described thus: Modulation of gamma-secretase-mediated cleavage of human APP expressed in CHO cells with human presenilin-1 assessed as activation of amyloid beta38 production after 24 hrs by ELISA. In kind it is cell-based. A general note: In an ELISA, binding on a coated surface is turned into a signal by an enzyme label.
The subject of data set [11] is CHO. Briefly: Cytotoxicity against CHO cells at 40 uM after 24 hrs by Alamar blue assay. In kind it is cell-based, Cricetulus griseus. The settings on record: chinese hamster. Background: The colour change of resazurin is a common sign of viable cells or microbes.
The subject of data set [12] is CHO. Briefly: Cytotoxicity against CHO cells at 60 uM after 24 hrs by Alamar blue assay. The settings on record: chinese hamster. The format is cell-based, Cricetulus griseus.

As usually defined, the IC50 is the concentration needed to halve the response being measured. A lower IC50 goes with greater potency in that assay. One may read the EC50 as the concentration at which the effect is half-maximal. Consider `CCCCC(Sc1nc(OCCc2ccc(C(F)(F)F)cc2)cc(OCCc2ccc(C(F)(F)F)cc2)n1)C(=O)O` (configuration not stated), for which the IC50 in [1] was determined as 16.9 µM; in data set [2], 6 µM. The Activity is 54.4% in [3], 69% in [8], “Non-toxic” in data set [11] and 25% in data set [12]. Also, the outcome in data set [4], in [6] and in data set [7] was inactive. The values for the EC50 in [5] and in data set [10] were 11 µM and 1.8 µM, respectively. Besides, the Emax in [9] was determined as 112%.
